According to US20220023317A1, “PREVENTING OR MITIGATING CHEMOTHERAPY INDUCED ALOPECIA USING VITAMIN D” (Berg LLC, priority 2013, published 2022):
Like-named read-outs stand apart in the source and are kept apart here.

How the values were obtained:
[1] = test system: MCF-7; assay: Cell growth / viability assay; assay type: cell-based
[2] = test system: Long Evans and Sprague Dawley rats
Description: Specifically, Long Evans and Sprague Dawley rats with pups were purchased from Harlan Laboratories, Inc. They were housed and fed according to applicable animal handling rules and regulations. Pups were allowed to acclimate for 48 hours prior to the start of experiments. […] Rats were isolated from their littermates and mother for 6-hour periods of time. Subsequently, the treated area was cleaned with soap and water and pups were returned to their litters. On day 13, rats either received etoposide (1.5 mg/kg daily for 3 days) or cyclophosphamide (CTX) (37.5 mg/kg once) or combination cyclophosphamide (35 mg/kg once) and doxorubicin (2.5 mg/kg daily for 3 days). All chemotherapies were purchased from Sigma and were given intraperitoneally (i.p.) in a total volume of 0.1 mL. Alopecia was recorded 10 days after the last dose of chemotherapy.

[3] = test system: MIAC51 (chloroleukemia cells); assay: Rats transplanted with chloroleukemia MIAC51, CTX with topical calcitriol; assay type: in vivo, rat; conditions: cyclophosphamide, preliminary results
Description: For experiments in which rats were transplanted with chloroleukemia, on Day 5 after birth, rats were randomly divided into three groups of 45 each. All rats received 1×10^5 chloroleukemic cell line MIAC51 (i.p.) in 0.1 mL of serum free (SF) RPMI. MIAC51 were cultured in RPMI 1640 supplemented with L-glutamine and 10% fetal bovine serum at 37° C. in a 5% CO2, 100% humidity incubator. Cells were grown to 50% confluency (1.5×106 mL) collected in 50 mL conical tubes, centrifuged at 600 g×10 min. at room temperature and resuspended in SF-RPMI at a concentration of 1×10^6/mL. Group 1 rats received no further treatment. Group 2 rats received topical vehicle and CTX on day 13. […] Topical applications were performed as described above.
On day 23 after birth, a sample of blood was taken from all rats and differentials performed. Rats with leukemia were sacrificed, rats without leukemia were kept and a second differential performed on day 31, at any point if leukemia was detected, animals were sacrificed by CO2 asphyxiation.

[4] = Quantification of calcitriol in ex vivo porcine skin layers; parameters: species or system minipig
From the text: The skin sections were weighed and the weight recorded.

[5] = test system: Sprague Dawley rats; assay: Neonatal rat model of CIA, 1,25(OH)2D3 in ethanol; assay type: in vivo; conditions: 0.2 μg in 150 μL ethanol topical, days 5-10; CTX 35 mg/kg; all 10 animals
From the text: Neonatal Rat model and PCA model. Sprague Dawley rats were purchased from Charles River Laboratories (Wilmington, Mass.). C3H/HeJ mouse were purchased from Jackson Laboratories (Bar Harbour, Me.).Rodents were housed and fed according to NIH guidelines. For experiments involving chemotherapy, cyclophosphamide was purchased from Mead Johnson (Evansville, Ind.) and Etoposide was obtained from Bristol-Myers (Evansville, Ind.). 1,25(OH)2D3 powder was a gift from Dr. Uskokovic (Hoffman-La Roche, Nutley, N.J.). For experiments involving C3H/HeJ mice, 1,25(OH)2D3 was purchased from Sigma (St. Louis, Mo.). Topical application of 1,25(OH)2D3. 1,25(OH)2D3 was dissolved in absolute ethanol and applied topically with an applicator. Control animals were similarly treated with vehicle only. […] For CIA experiments, 1,25(OH)2D3 was given daily beginning on day 5 after birth and ending on day 10. […] For CIA and PCA, the experimental group was treated with 0.2 μg of 1,25(OH)2D3 in 150 μL of absolute ethanol applied topically over the head and neck. In both instances, the control group received ethanol vehicle only. Cyclophosphamide (35 mg/kg) was given intraperitoneally for one day only. […] Both chemotherapies were started at 11 days of age. Alopecia was recorded on the tenth day after the first dose of chemotherapy.

[6] = test system: Sprague Dawley rats; assay: PCA model, hair regrowth in alopecic rats; assay type: in vivo, rat; conditions: 0.2 μg topical days 22-35, rats alopecic from cyclophosphamide or etoposide; controls day 42
Description: Topical application of 1,25(OH)2D3. 1,25(OH)2D3 was dissolved in absolute ethanol and applied topically with an applicator. Control animals were similarly treated with vehicle only. […] For CIA experiments, 1,25(OH)2D3 was given daily beginning on day 5 after birth and ending on day 10. […] For CIA and PCA, the experimental group was treated with 0.2 μg of 1,25(OH)2D3 in 150 μL of absolute ethanol applied topically over the head and neck. In both instances, the control group received ethanol vehicle only. Cyclophosphamide (35 mg/kg) was given intraperitoneally for one day only. […] Both chemotherapies were started at 11 days of age. Alopecia was recorded on the tenth day after the first dose of chemotherapy. […] Rats were randomized into two groups of ten rats each. One group received vehicle control, while the other received 0.2 μg 1,25(OH)2D3. […] Animals were observed until complete hair regrowth was obtained.

[7] = test system: BALB/c mice; conditions: cited from earlier work
[8] = test system: EMT-6 murine breast tumor; conditions: male mice, topical calcitriol before i.p. cyclophosphamide; cited from earlier work
[9] = Female Minipigs, 10 μg/mL, mean ± SD
[10] = Female Minipigs, 30 μg/mL, mean ± SD
[11] = Male Minipig (1 animal), 100 μg/mL, mean ± SD
[12] = Male Minipigs, 3 μg/mL, mean ± SD
[13] = Male Minipigs, 10 μg/mL, mean ± SD
[14] = Male Minipigs, 30 μg/mL, mean ± SD

C=C1/C(=C\C=C2/CCC[C@]3(C)[C@@H]([C@H](C)CCCC(C)(C)O)CC[C@@H]23)C[C@@H](O)C[C@@H]1O [Calcitriol, (1a.3B.5Z.7E)-9,10-secocholesta-5,7,10(19)-triene-1,3,25-triol]
effect of calcitriol on cytotoxic effect of Doxorubicin [1]: did not appear to appreciably alter
response to doxorubicin, cisplatin, erlotinib after calcitriol exposure ([1]; 0.1 μg/mL calcitriol for two passages): did not alter
concentrations giving growth inhibition ([1]; high concentrations): > 0.5 µg/mL
concentrations giving growth stimulation ([1]; low concentrations): 0.05 to 0.25 µg/mL
protection from etoposide-induced alopecia ([2]; 0.1 μg of calcitriol topical for 6 hours, daily x6, etoposide 1.5 mg/kg x3): partial localized protection
protection from cyclophosphamide-induced alopecia ([2]; 0.3 μg calcitriol topical): full body protection
protection from etoposide-induced alopecia ([2]; 0.3 μg calcitriol topical): total body protection
protection of the cancer cells from chemotherapy [3]: have not shown protection of the cancer cells
Stratum Corneum calcitriol recovered ([4]; Female Minipigs, 1 μg/mL, mean ± SD): 0.76 ± 1.3 (3) ng/cm^2
Dermis calcitriol recovered ([4]; Female Minipigs, 1 μg/mL, zero = below Lower Limit of Detection): 0 ± 0 (3) ng/mg
Stratum Corneum calcitriol recovered ([4]; Female Minipigs, 3 μg/mL, mean ± SD): 1.12 ± 1.49 (3) ng/cm^2
Dermis calcitriol recovered ([4]; Female Minipigs, 3 μg/mL, zero = below Lower Limit of Detection): 0 ± 0 (3) ng/mg
Epidermis calcitriol recovered [4, 9]: 0.02 ± 0.04 (3) ng/mg
Stratum Corneum calcitriol recovered [4, 9]: 1.65 ± 1.80 (3) ng/cm^2
Dermis calcitriol recovered ([4]; Female Minipigs, 10 μg/mL, zero = below Lower Limit of Detection): 0.0 ± 0.0 (3) ng/mg
Epidermis calcitriol recovered [4, 10]: 0.34 ± 0.24 (3) ng/mg
Stratum Corneum calcitriol recovered [4, 10]: 20.2 ± 11.7 (3) ng/cm^2
Dermis calcitriol recovered ([4]; Female Minipigs, 30 μg/mL, zero = below Lower Limit of Detection): 0.0 ± 0.0 (3) ng/mg
Dermis calcitriol recovered [4, 11]: 0.13 ± 0.04 (1) ng/mg
Epidermis calcitriol recovered [4, 11]: 2.09 ± 1.0 (1) ng/mg
Stratum Corneum calcitriol recovered [4, 11]: 118.1 ± 11.4 (1) ng/cm^2
Epidermis calcitriol recovered ([4]; Male Minipigs, 1 μg/mL, mean ± SD): 0.16 ± 0.28 (3) ng/mg
Stratum Corneum calcitriol recovered ([4]; Male Minipigs, 1 μg/mL, twice daily 7 days, mean ± SD): 56.1 ± 17.4 (3) ng/cm^2
Dermis calcitriol recovered ([4]; Male Minipigs, 1 μg/mL, zero = below Lower Limit of Detection): 0.0 ± 0.0 (3) ng/mg
Epidermis calcitriol recovered [4, 12]: 0.14 ± 0.23 (3) ng/mg
Stratum Corneum calcitriol recovered [4, 12]: 62.4 ± 7.91 (3) ng/cm^2
Dermis calcitriol recovered ([4]; Male Minipigs, 3 μg/mL, zero = below Lower Limit of Detection): 0.0 ± 0.0 (3) ng/mg
Epidermis calcitriol recovered [4, 13]: 0.23 ± 0.20 (3) ng/mg
Stratum Corneum calcitriol recovered [4, 13]: 59.6 ± 14.1 (3) ng/cm^2
Dermis calcitriol recovered ([4]; Male Minipigs, 10 μg/mL, zero = below Lower Limit of Detection): 0.0 ± 0.0 (3) ng/mg
Epidermis calcitriol recovered [4, 14]: 0.38 ± 0.33 (3) ng/mg
Stratum Corneum calcitriol recovered [4, 14]: 54.6 ± 32.5 (3) ng/cm^2
Dermis calcitriol recovered ([4]; Male Minipigs, 30 μg/mL, zero = below Lower Limit of Detection): 0.0 ± 0.0 (3) ng/mg
protection from cyclophosphamide-induced alopecia [5]: did not develop alopecia
day of total body hair regrowth [6]: 50 days
protective effect in tumor-bearing male mice ([7]; injected with EMT-6 murine breast tumor cells): diminished
degree of CIA ([7]; male mice, topical 5 days prior to i.p. cyclophosphamide): significantly reduced the degree of CIA in a dose-dependent manner
rate of tumor growth vs either agent alone [8]: greater reduction in the rate of tumor growth
